Read-outs that look alike come from different tables or passages of the source.
Key:
Format in all cases: cell-based
[1] = system: PC-3M-Luc-C6 prostate cells; assay: In Vitro PC-3M-Luc-C6 Prostate Cell Proliferation Assay in Lipid Reduced Medium; conditions: Prostate cell, read-out: pIC50 PC-3M-Luc-C6 prostate cell (converted); 10% lipid reduced serum, 96 h, ATP-glow luminescence
A2780 ovarian cells = assay: A2780 Ovarian Cell Proliferation Assay in Lipid Reduced Medium, with and without Palmitate (MTT); conditions: Homo sapiens, 10% lipid-reduced serum, 96 h
[2] = system: LNCaP_Vancouver prostate cells; assay: In Vitro LNCaP Vancouver Prostate Cell Proliferation Assay in Lipid Reduced Medium; conditions: Prostate cell; 10% lipid reduced serum, 96 h, ATP-glow luminescence; read-out: pIC50 LNCaP_Vancouver prostate cell (converted)
Procedure: LNCaP_Vancouver prostate cells were obtained from the Vancouver Prostate Cancer Centre.
The next day 10 μl of test compound/DMSO diluted in medium was added (3E-5M, 1E-5M, 3E-6M,1E-6M, 3E-7M, 1E-7M, 3E-8M, 1E-8M final concentration). Compounds were tested in duplicate. After 96 h incubation at 37° C., 5% CO2 25 μl ATP-glow mix was added. The plate was incubated for 30 min at 37° C. and luminescence was measured with the Envision.
Analysis: Determination of pIC50 Values
pIC50 values were calculated as follows. Raw data generated by the instruments were normalized to % Controlmin values, which were calculated as: % Controlmin=100*(x−mLC)/(mHC−mLC),
where mLC and mHC are the means of the low control wells and high control wells on the plate, after manual exclusion of outliers. The relation between the % Controlmin values and concentration was fitted to a 4-parameter logistic curve using a non-linear least squares regression method to determine the pIC50 value. Outlying data points were excluded manually to get a correct fit. The pIC50 corresponds to −log 10(IC50), if the IC50 is expressed in molar units (http://www.ncbi.nlm.nih.qovibooks/NBK91994). The IC50 parameter was always determined by non-linear regression, but one or more of the other parameters may have been held fixed on a relevant input value, such as 0 for the bottom values.

[3] = 25 μM palmitate added (control), read-out: pIC50 With Palmitate (converted)
[4] = no palmitate, read-out: pIC50 Without Palmitate (converted)

Row | IC50 [1] | IC50 (A2780 ovarian cells; [3]) | IC50 (A2780 ovarian cells; [4]) | IC50 [2] | SMILES
1 | 1820 nM | > 10000 nM | 2510 nM | 8910 nM | Cn1cc(-c2ccc(-c3ccc(C4=NC(C)(C)C(=O)N4CC4CN(C(=O)C5CC5)C4)cc3)cc2)cn1 [Compound 17, 1-((1-(cyclopropanecarbonyl)azetidin-3-yl)methyl)-4,4-dimethyl-2-(4′-(1-methyl-1H-pyrazol-4-yl)-[1,1′-biphenyl]-4-yl)-1H-imidazol-5(4H)-one]
2 | 224 nM | > 10000 nM | ~269 nM | 813 nM | CC1(C)N=C(c2ccc(-c3ccc(-c4ccncc4)cc3)cc2F)N(CC2CN(C(=O)C3CC3)C2)C1=O [Compound 22, 1-((1-(cyclopropanecarbonyl)azetidin-3-yl)methyl)-2-(3-fluoro-4′-(pyridin-4-yl)-[1,1′-biphenyl]-4-yl)-4,4-dimethyl-1H-imidazol-5(4H)-one]
3 | 53.7 nM | > 10000 nM | 75.9 nM | 219 nM | CC1(C)N=C(c2ccc(-c3ccc4cccnc4c3)cc2)N(C[C@@H]2CCN(C(=O)C3CC3)C2)C1=O [Compound 23]
4 | 447 nM | > 10000 nM | ~363 nM | 1450 nM | CC1(C)N=C(c2ccc(-c3ccc4cccnc4c3)cc2)N(CC2CN(C(=O)C3CC3)C2)C1=O [Compound 24, 1-((1-(cyclopropanecarbonyl)azetidin-3-yl)methyl)-4,4-dimethyl-2-(4-(quinolin-7-yl)phenyl)-1H-imidazol-5(4H)-one]
5 | 891 nM | > 10000 nM | 1170 nM | 2880 nM | CC1(C)N=C(c2ccc(-c3cnc4ccccc4c3)cc2)N(C[C@@H]2CCN(C(=O)C3CC3)C2)C1=O [Compound 25, (R)-1-((1-(cyclopropanecarbonyl)pyrrolidin-3-yl)methyl)-4,4-dimethyl-2-(4-(quinolin-3-yl)phenyl)-1H-imidazol-5(4H)-one]
6 | 1000 nM | > 10000 nM | 1950 nM | 3390 nM | CC1(C)N=C(c2ccc(-c3ccc(-c4ccncc4)cc3)cc2)N(CC2CN(C(=O)C3CC3)C2)C1=O [Compound 26, 1-((1-(cyclopropanecarbonyl)azetidin-3-yl)methyl)-4,4-dimethyl-2-(4′-(pyridin-4-yl)-[1,1′-biphenyl]-4-yl)-1H-imidazol-5(4H)-one]
7 | 324 nM | > 10000 nM | ~316 nM | 1380 nM | CC1(C)N=C(c2ccc(-c3ccc4cnccc4c3)cc2)N(CC2CN(C(=O)C3CC3)C2)C1=O [Compound 27, 1-((1-(cyclopropanecarbonyl)azetidin-3-yl)methyl)-2-(4-(isoquinolin-6-yl)phenyl)-4,4-dimethyl-1H-imidazol-5(4H)-one]
8 | 63.1 nM | > 10000 nM | 58.9 nM | 1580 nM | CC1(C)N=C(c2ccc(-c3ccc4cnccc4c3)cc2)N(C[C@@H]2CCN(C(=O)C3CC3)C2)C1=O [Compound 28]
9 | 1290 nM | > 10000 nM | 1230 nM | ~2820 nM | CC1(C)N=C(c2ccc(-c3ccc4cc(F)ccc4c3)cc2)N(CC2CN(C(=O)C3CC3)C2)C1=O [Compound 29, 1-((1-(cyclopropanecarbonyl)azetidin-3-yl)methyl)-2-(4-(6-fluoronaphthalen-2-yl)phenyl)-4,4-dimethyl-1H-imidazol-5(4H)-one]
10 | 490 nM | > 10000 nM | 1230 nM | 3390 nM | CC1(C)N=C(c2ccc(-c3ccc4cc(F)ccc4c3)cc2)N(C[C@@H]2CCN(C(=O)C3CC3)C2)C1=O [Compound 30, (R)-1-((1-(cyclopropanecarbonyl)pyrrolidin-3-yl)methyl)-2-(4-(6-fluoronaphthalen-2-yl)phenyl)-4,4-dimethyl-1H-imidazol-6(4H)-one]
11 | ~617 nM | > 10000 nM | ~1000 nM | 912 nM | CC1(C)N=C(c2ccc(-c3cccc4ncccc34)cc2)N(C[C@@H]2CCN(C(=O)C3CC3)C2)C1=O [Compound 31, (R)-1-((1-(cyclopropanecarbonyl)pyrrolidin-3-yl)methyl)-4,4-dimethyl-2-(4-(quinolin-5-yl)phenyl)-1H-1-imidazol-5(4H)-one]
12 | 1480 nM | > 10000 nM | 977 nM | 4680 nM | Cn1ncc2cc(-c3ccc(C4=NC(C)(C)C(=O)N4CC4CN(C(=O)C5CC5)C4)c(F)c3)ccc21 [Compound 32, 1-((1-(cyclopropanecarbonyl)azetidin-3-yl)methyl)-2-(2-fluoro-4-(1-methyl-1H-indazol-5-yl)phenyl)-4,4-dimethyl-1H-imidazol-5(4H)-one]
13 | 832 nM | > 10000 nM | 1000 nM | 2630 nM | CC1(C)N=C(c2ccc(-c3nc4ccccc4s3)cc2F)N(CC2CN(C(=O)C3CC3)C2)C1=O [Compound 34, 2-(4-(benzo[d]thiazol-2-yl)-2-fluorophenyl)-1-((1-(cyclopropanecarbonyl)azetidin-3-yl)methyl)-4,4-dimethyl-1H-imidazol-5(4H)-one]
14 | 95.5 nM | > 10000 nM | ~91.2 nM | 269 nM | CC1(C)N=C(c2ccc(-c3ccc4cccnc4c3)cc2F)N(CC2CN(C(=O)C3CC3)C2)C1=O [Compound 39, 1-((1-(cyclopropanecarbonyl)azetidin-3-yl)methyl)-2-(2-fluoro-4-(quinolin-7-yl)phenyl)-4,4-dimethyl-1H-imidazol-5(4H)-one]
15 | 417 nM | > 10000 nM | ~347 nM | 1150 nM | CC1(C)N=C(c2ccc(-c3ccc4cccc(F)c4c3)cc2)N(C[C@@H]2CCN(C(=O)C3CC3)C2)C1=O [Compound 41, (R)-1-((1-(cyclopropanecarbonyl)pyrrolidin-3-yl)methyl)-2-(4-(8-fluoronaphthalen-2-yl)phenyl)-4,4-dimethyl-1H-imidazol-5(4H)-one]
16 | 417 nM | > 10000 nM | ~191 nM | 1000 nM | CC1(C)N=C(c2ccc(-c3ccc4cncnc4c3)cc2)N(C[C@@H]2CCN(C(=O)C3CC3)C2)C1=O [Compound 42, (R)-1-((1-(cyclopropanecarbonyl)pyrrolidin-3-yl)methyl)-4,4-dimethyl-2-(4-(quinazolin-7-yl)phenyl)-1H-imidazol-5(4H)-one]
17 | 47.9 nM | > 10000 nM | 46.8 nM | 389 nM | CC1(C)N=C(c2ccc(-c3ccc4cncnc4c3)cc2F)N(C[C@@H]2CCN(C(=O)C3CC3)C2)C1=O [Compound 44, (R)-1-((1-(cyclopropanecarbonyl)pyrrolidin-3-yl)methyl)-2-(2-fluoro-4-(quinazolin-7-yl)phenyl)-4,4-dimethyl-1H-imidazol-5(4H)-one]
18 | 67.6 nM | > 10000 nM | 26.3 nM | 117 nM | Cn1cc(-c2ccc(-c3ccc(C4=NC(C)(C)C(=O)N4C[C@@H]4CCN(C(=O)C5CC5)C4)c(F)c3)cc2)cn1 [Compound 45]
19 | ~24 nM | > 10000 nM | 14.1 nM | 200 nM | CC1(C)N=C(c2ccc(-c3ccc4cccnc4c3)cc2F)N(C[C@@H]2CCN(C(=O)C3CC3)C2)C1=O [Compound 49, (R)-1-((1-(cyclopropanecarbonyl)pyrrolidin-3-yl)methyl)-2-(2-fluoro-4-(quinolin-7-yl)phenyl)-4,4-dimethyl-1H-imidazol-5(4H)-one]
20 | 324 nM | > 10000 nM | 288 nM | 794 nM | CC1(C)N=C(c2ccc(-c3nc4ccccc4o3)cc2F)N(C[C@@H]2CCN(C(=O)C3CC3)C2)C1=O [Compound 51, (R)-2-(4-(benzo[d]oxazol-2-yl)-2-fluorophenyl)-1-((1-(cyclopropanecarbonyl)pyrrolidin-3-yl)methyl)-4,4-dimethyl-1H-imidazol-5(4H)-one]
21 | 776 nM | > 10000 nM | 708 nM | 1290 nM | CC1(C)N=C(c2ccc(-c3nc4ccccc4o3)cc2F)N(CC2CN(C(=O)C3CC3)C2)C1=O [Compound 52, 2-(4-(benzo[d]oxazol-2-yl)-2-fluorophenyl)-1-((1-(cyclopropanecarbonyl)azetidin-3-yl)methyl)-4,4-dimethyl-1H-imidazol-5(4H)-one]
22 | ~912 nM | > 10000 nM | 263 nM | 1260 nM | CC1(C)N=C(c2ccc(-c3c[nH]c4ccccc34)cc2)N(C[C@@H]2CCN(C(=O)C3CC3)C2)C1=O [Compound 65, (R)-2-(4-(1H-indol-3-yl)phenyl)-1-((1-(cyclopropanecarbonyl)pyrrolidin-3-yl)methyl)-4,4-dimethyl-1H-imidazol-5(4H)-one]
23 | 145 nM | – | ~195 nM | 407 nM | CC1(C)N=C(c2ccc(-c3ccc4cccc(F)c4c3)cc2F)N(C[C@@H]2CCN(C(=O)C3CC3)C2)C1=O [Compound 67, (R)-1-((1-(cyclopropanecarbonyl)pyrrolidin-3-yl)methyl)-2-(2-fluoro-4-(8-fluoronaphthalen-2-yl)phenyl)-4,4-dimethyl-1H-imidazol-5(4H)-one]
